Results from US20190275040A1, “COMPOUNDS AND METHODS FOR TREATING OR PREVENTING ALZHEIMER'S DISEASE” (YALE UNIVERSITY, priority 2016, published 2019).
pKi: −log10 of the molar value. Read-outs that look alike come from different tables or passages of the source.

Experiments:
Pyk2 activation (p-Pyk2) = test: Pyk2 activation and Aβo-induced signaling in cells; assay type: cell-based; settings: 500 nM
Method: In brain slices and in dissociated primary neuronal cultures, Aβo causes Fyn activation, Pyk2 activation, altered Glu-induced calcium signaling, dendritic spine loss and suppression of LTP. […] After developing LC/MS/MS methods to detect PF-719, the extent to which the Pyk2 inhibitor enters brain from peripheral dosing was determined. […] Continuous 25 mg/kg/d minipump i.p. infusion was chosen for treatment of APP/PS1 mice.

FAK [1] = target: T1, FAK (Homo sapiens, UniProt Q05397); settings: cited from earlier work
Pyk2 [2] = target: T2, Pyk2 (Homo sapiens, UniProt Q14289); test: Luciferase-based (ADP-Glo) PYK2 kinase assay; assay type: biochemical
Method: Enzyme, substrate, ATP and inhibitors are diluted in Tyrosine Kinase Buffer. […] The resulting system is incubated at room temperature for 60 minutes. 5 μl of ADP-GLO™ Reagent are added. […] 10 μl of Kinase Detection Reagent are added. […] Luminescence is recorded (Integration time 0.5-1 second).

[3] = system: primary hippocampal neurons; test: Dendritic spine motility in primary hippocampal neurons; assay type: cell-based, mouse; settings: Aβo 24 hours; PF-719 1 μM, Y27632 10 μM
Source text: FIG. 11A: Representative images of dendritic spine motility by standard deviation projection of time-lapse image. […] The standard deviation value for each pixel is shown by thermal color scale. […] FIG. 11B: Quantification of spine motility, expressed as % of changed area of spines with subtraction of changed area of dendritic shaft as background (changed area=(ΔAspine/Aspine×100)−(ΔAshaft/Ashaft×100)). […] Data are graphed as mean±SEM (n=7-8 coverslips from 3 different cultures). **p<0.01, ***p<0.001 by ANOVA, Tukey's multiple comparisons test.
FIG. 18A: Representative images of dendritic spine motility by standard deviation projection of time stacks. […] To display the spine motility in time-lapse images, the time stack images over 5 min of each conditions were projected to standard deviation using Image J and color coated with thermal color scale. […] FIG. 18B: Quantification of spine motility, expressed as % of changed area of spines with subtraction of dendritic shaft area change (changed area=(ΔAspine/Aspine×100)−(ΔAshaft/Ashaft×100)). Mean±SEM (n=5 coverslips).
Time-lapse images were acquired for 5 minutes with 10 second intervals in Tyrode's solution using 60× objective lens driven Volocity software. Time-lapse images (31 time frames over 5 min) were subjected to standard deviation (STD) projection to visualize spine motility in single image and colorized with thermal scale using ImageJ software (NIH). Quantitative measurements of spine motility by calculating the changed area at individual dendritic spines were conducted by using ImageJ software by an observer unaware of treatment group.

Fyn = Fyn (Homo sapiens, UniProt P06241); settings: cited from earlier work
FAK [4] = target: T1, FAK; test: FAK Ki and selectivity versus Pyk2; assay type: biochemical
[5] = system: primary hippocampal neurons; test: Aβo-dependent dendritic spine loss in primary hippocampal neurons; assay type: cell-based, mouse; settings: Aβo for 4 days
Source text: FIGS. 11A-11H illustrate the finding that Aβo-induced dendritic spine deficits are prevented by deletion of Pyk2 and RhoA inhibition in primary neurons. FIG. 11A: Representative images of dendritic spine motility by standard deviation projection of time-lapse image. […] The standard deviation value for each pixel is shown by thermal color scale. Scale bar, 10 μm. FIG. 11B: Quantification of spine motility, expressed as % of changed area of spines with subtraction of changed area of dendritic shaft as background (changed area=(ΔAspine/Aspine×100)−(ΔAshaft/Ashaft×100)). […]
It was considered whether the acute effects of Aβo-induced, Pyk2-mediated decrease on spine motility might be translated into alteration in spine number over longer time periods. Dendritic spine density was measured in populations of vehicle and Aβo treated primary hippocampal neuron cultures. […]
Analysis and quantification of data were performed with Volocity software after max intensity projection. The numbers of dendritic spines were counted manually to estimate the density of primary or secondary dendritic branch by observer unaware of drug or genotype. For each condition, at least 3 dendrites were measured from each neuron and 5-7 neurons were imaged per coverslip. […]

Pyk2 [6] = target: T2, Pyk2; settings: cited from earlier work

T2 sequence (Q14289 whole entry, species assumed): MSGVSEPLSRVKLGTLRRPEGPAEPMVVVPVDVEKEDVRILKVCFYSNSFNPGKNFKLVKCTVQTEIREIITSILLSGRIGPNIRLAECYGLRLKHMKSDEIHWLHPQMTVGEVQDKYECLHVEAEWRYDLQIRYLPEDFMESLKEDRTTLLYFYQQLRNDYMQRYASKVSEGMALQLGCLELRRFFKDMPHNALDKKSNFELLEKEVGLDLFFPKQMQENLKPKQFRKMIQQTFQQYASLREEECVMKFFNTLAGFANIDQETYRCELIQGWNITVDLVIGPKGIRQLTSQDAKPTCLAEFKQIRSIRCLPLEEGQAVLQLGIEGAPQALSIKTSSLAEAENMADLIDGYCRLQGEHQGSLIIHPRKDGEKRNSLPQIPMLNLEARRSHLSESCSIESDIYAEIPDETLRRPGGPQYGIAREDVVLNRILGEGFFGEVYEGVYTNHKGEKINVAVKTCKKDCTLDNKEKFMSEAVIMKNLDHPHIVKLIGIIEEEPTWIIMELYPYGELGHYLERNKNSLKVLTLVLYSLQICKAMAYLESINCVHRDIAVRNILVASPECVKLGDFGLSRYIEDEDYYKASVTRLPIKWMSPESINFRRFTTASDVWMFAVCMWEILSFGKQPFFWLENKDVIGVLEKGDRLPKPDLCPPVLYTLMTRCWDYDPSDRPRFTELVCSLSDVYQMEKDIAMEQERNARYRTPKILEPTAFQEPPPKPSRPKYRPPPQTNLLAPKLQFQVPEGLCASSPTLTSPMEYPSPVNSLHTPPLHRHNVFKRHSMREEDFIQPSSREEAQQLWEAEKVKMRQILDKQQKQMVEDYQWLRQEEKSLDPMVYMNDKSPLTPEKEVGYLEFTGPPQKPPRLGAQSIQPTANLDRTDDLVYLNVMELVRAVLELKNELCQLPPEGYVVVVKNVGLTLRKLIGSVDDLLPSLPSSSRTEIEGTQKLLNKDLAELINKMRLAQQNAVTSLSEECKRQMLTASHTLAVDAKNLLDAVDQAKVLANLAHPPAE
T1 sequence (Q05397 whole entry, species assumed): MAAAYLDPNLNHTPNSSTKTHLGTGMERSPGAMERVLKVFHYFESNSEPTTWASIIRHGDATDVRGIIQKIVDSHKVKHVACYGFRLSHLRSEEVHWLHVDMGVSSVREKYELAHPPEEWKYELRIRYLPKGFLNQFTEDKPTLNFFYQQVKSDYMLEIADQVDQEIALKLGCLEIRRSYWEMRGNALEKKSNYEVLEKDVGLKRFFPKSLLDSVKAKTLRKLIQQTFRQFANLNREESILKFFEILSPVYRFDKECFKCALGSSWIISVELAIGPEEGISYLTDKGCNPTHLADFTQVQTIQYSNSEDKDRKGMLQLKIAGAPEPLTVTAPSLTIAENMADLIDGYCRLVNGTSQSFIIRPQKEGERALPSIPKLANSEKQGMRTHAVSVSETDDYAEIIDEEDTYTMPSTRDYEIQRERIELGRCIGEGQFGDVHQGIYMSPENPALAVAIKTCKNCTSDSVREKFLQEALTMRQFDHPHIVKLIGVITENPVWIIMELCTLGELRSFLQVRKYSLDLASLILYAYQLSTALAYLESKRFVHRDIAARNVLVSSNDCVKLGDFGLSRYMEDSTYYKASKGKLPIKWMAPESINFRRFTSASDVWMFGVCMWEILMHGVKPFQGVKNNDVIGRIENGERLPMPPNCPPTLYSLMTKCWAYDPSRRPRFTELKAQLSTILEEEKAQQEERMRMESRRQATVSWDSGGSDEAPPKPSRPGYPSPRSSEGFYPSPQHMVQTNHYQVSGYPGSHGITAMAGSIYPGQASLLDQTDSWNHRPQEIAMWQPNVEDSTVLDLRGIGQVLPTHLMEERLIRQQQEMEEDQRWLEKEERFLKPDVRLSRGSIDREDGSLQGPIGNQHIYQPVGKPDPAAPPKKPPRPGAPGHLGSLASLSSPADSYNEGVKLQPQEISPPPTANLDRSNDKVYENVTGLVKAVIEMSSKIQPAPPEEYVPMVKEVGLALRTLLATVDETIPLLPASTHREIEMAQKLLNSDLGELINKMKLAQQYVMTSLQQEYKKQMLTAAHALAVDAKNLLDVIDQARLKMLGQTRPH
Fyn, sequence (P06241 whole entry, species assumed): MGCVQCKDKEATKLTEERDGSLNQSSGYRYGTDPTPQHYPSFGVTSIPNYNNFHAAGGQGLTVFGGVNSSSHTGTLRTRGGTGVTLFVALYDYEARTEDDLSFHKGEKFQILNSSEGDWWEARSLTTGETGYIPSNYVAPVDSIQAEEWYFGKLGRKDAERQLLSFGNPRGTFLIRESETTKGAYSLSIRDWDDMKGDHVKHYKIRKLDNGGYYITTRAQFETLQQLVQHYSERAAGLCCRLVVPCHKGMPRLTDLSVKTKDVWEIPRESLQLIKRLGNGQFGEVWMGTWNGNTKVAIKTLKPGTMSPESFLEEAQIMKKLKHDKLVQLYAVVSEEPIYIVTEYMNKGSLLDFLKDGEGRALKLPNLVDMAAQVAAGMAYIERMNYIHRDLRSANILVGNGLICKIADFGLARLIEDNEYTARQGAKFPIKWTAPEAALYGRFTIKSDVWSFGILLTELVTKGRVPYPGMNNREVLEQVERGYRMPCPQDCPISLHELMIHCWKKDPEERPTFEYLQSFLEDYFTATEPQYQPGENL

- Pyk2 inhibition in luciferase-based biochemical assay (Pyk2 [2]): confirm the respective specificities
- selectivity Pyk2 versus FAK (FAK [4]): 30 ×
SMILES: CCOc1ccc2nc(SCc3nc(N)nc(N4CCOCC4)n3)sc2c1 [PF-719, 4-(((6-ethoxybenzo[d]thiazol-2-yl)thio)methyl)-6-morpholino-1,3,5-triazin-2-amine]
- baseline Pyk2 activation and Aβo-induced signaling in cells (Pyk2 activation (p-Pyk2)): blocked baseline Pyk2 activation and Aβo-induced signaling
- pKi (FAK [1]): 6.35
- Aβo-induced decrease in spine motility [3]: rescue fully the Aβo-induced decrease in spine motility
- pKi (Fyn): < 6.00
- Aβo dependent spine loss [5]: rescue fully Aβo dependent spine loss
- pKi (Pyk2 [6]; isolated Pyk2, read-out: Ki for isolated Pyk2): 7.82
- pKi (Pyk2 [6]; read-out: Pyk2 Ki): 8.00
